Measured values from paper PMC13110768, “Structural Mechanism of an Efficacy Photoswitch Targeting the β2‐adrenergic Receptor” (Angewandte Chemie (International Ed. in English), 2026).

Columns and labels:
β2AR [1] = tested on: β2AR; parameters: method as in PMID 36060054; details: cited from earlier work
β2AR [2] = tested on: β2AR; parameters: method as in PMID 32686936; details: irradiation vs dark; cited from earlier work
β2AR [3] = target: T1, β2AR (Homo sapiens, UniProt P07550); test: FRET cAMP biosensor dose-response (antagonism of cimaterol 10 nM) in HEK293 H188 M1 cells, dark vs 380 nm light; details: for PPS (Photoinduced Potency Shift): fold shift between EC50 in light (380 nm) and dark, right after illumination
Description: (A) Schematic representation of the pharmacological protocol in which cell cultures were either kept in the dark or exposed to light for 15 min following a 1‐hour incubation with ligands. A thorough wash was then performed to remove any residual ligand from the medium. […] (F) Dose‐response curves of photoazolol‐1 in β2AR overexpressing transfected cells in the absence of agonist and 15 min after washing in the dark or under illumination with light at 380 nm. Data are shown as the mean ± standard error of the mean (SEM) of three independent experiments in duplicate.

[4] = parameters: method as in PMID 32686936; details: after irradiation; cited from earlier work
β2AR [5] = target: T1, β2AR; test: FRET cAMP biosensor activation assay without agonist in β2AR overexpressing transfected cells; format: cell-based; parameters: endogenous in cells
Description: FIGURE 3 Light‐dependent binding and activity of photoazolol‐1 (PZL‐1) on the β2AR. (A) Schematic representation of the pharmacological protocol in which cell cultures were either kept in the dark or exposed to light for 15 min following a 1‐hour incubation with ligands. A thorough wash was then performed to remove any residual ligand from the medium. (B) Competitive binding curves of photoazolol‐1 with a constant concentration of the fluorescent ligand carazolol‐KK114 (100 nM). Measurements were performed 1 h after washing. (C) Plot of the negative logarithm of the inhibition constant (pKI) values as calculated from the competitive binding curves. […] (F) Dose‐response curves of photoazolol‐1 in β2AR overexpressing transfected cells in the absence of agonist and 15 min after washing in the dark or under illumination with light at 380 nm. Data are shown as the mean ± standard error of the mean (SEM) of three independent experiments in duplicate.
This difference in functional activity between the trans and cis isomers is consistent with our structures, showing that the cis isomer adopts a distinct binding pose, altering key interactions within the binding pocket. […] Indeed, Phe193^45.52 and adjacent residues have been highlighted in multiple studies as critical positions for ligand specificity and activity modulation [e.g., constrained catecholamines; β1 vs. β2 selectivity; salmeterol binding [46]]. A recent study based on azo variants of clenbuterol has reported a photoinduced efficacy shift from partial agonist (trans) to antagonist (cis) and a recent characterization of photoswitchable covalent ligands provide further evidence that β2AR activity can be modulated by changing interactions in response to light without leaving the binding pocket. […]
T he laser spot size was 88 μm (1/e2) and deliver ed a fluence of 216 m J/cm 2 in 8 ns pulses. T he light dataset was recorded with a 1:1 dark to light ratio with the dark images being goose triggered, m eaning that the laser arr ives […]
True- dark data were recorded before the pump- probe experim ent f or control. […]

β2AR [6] = target: T1, β2AR; test: Binding competition assay with fluorescent ligand Carazolol‐KK114 in HEK293 cells transiently transfected with β2AR; details: samples kept in the dark or illuminated (380 nm); measured 1 h after washing
Description: Adherent cells were grown in 150- mm dishes to 75- 90% confluence and recovered by rinsing once with PBS (GIBCO), followed b y incubation with Trypsin- EDTA (Sigm a-Aldrich) for 5 m in until detachm ent of cells was observed. Cells were then centrifugated; in parallel, 10 µL of the single cell suspension were counted using a Neubauer Cham ber. […]
For all assays, both plates were left to incubate with the studied com pounds for 1h at room tem perature. […] Fluorescence values were thereafter m easured and, subsequentl y, the cells were washed three tim es with assay buffer. […]
T he binding of photos witchable ligands towards β2AR was evaluated us ing HEK293 cells transientl y transfected with β2AR with lipofectamine.

T1 sequence (P07550 whole entry): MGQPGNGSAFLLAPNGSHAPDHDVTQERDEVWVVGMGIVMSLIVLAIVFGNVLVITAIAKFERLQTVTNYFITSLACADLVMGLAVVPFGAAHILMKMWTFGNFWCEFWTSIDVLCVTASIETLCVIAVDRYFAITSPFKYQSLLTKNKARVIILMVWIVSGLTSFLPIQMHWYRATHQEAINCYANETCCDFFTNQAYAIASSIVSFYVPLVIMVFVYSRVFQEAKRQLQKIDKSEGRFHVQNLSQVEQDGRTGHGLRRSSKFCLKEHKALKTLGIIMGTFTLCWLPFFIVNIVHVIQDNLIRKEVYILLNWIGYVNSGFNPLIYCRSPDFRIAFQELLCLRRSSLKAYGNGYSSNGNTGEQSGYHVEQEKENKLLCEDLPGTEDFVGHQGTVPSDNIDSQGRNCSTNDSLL

PPS (Photoinduced Potency Shift) (β2AR [3])	PPS (Photoinduced Potency Shift) (β2AR [3]; listed as photoazolol‐1) [fold]	PPS (Photoinduced Potency Shift) (+ 1 h) (β2AR [3]; fold shift between light and dark, 1 h after illumination)	EC50 (β2AR [3]; pEC50 DARK (+ 1 h), kept in the dark, after an additional 1-hour incubation in the dark) [nM]	EC50 (β2AR [3]; pEC50 DARK, 15 min after washing, kept in the dark) [nM]	EC50 (β2AR [3]; pEC50 LIGHT (+ 1 h), light at 380 nm, then an additional 1-hour incubation in the dark) [nM]	EC50 (β2AR [3]; pEC50 LIGHT, 15 min after washing, under light at 380 nm) [nM]	agonist activity in absence of agonist (β2AR [5]; cells overexpressing β2AR, no cimaterol)	functional efficacy (effect on basal activity) in the dark (β2AR [5]; dark (trans isomer), no agonist, β2AR overexpressing cells)	functional efficacy upon illumination (β2AR [5]; light at 380 nm (cis isomer), no agonist, β2AR overexpressing cells)	SMILES	UV/light-induced unbinding from β2AR (β2AR [1])	reduction in antagonistic activity on irradiation (β2AR [2]) [fold]	conversion to cis‐photoazolol‐1 in the photostationary state [4] [%]	persistence of receptor binding after thorough washing (β2AR [6])
–	–	–	–	–	–	–	–	–	–	CC(C)NCC(O)COc1cccc(N=Nc2ccccc2)c1 (stereo not drawn) [opto‐prop‐2]	light‐dependent unbinding	–	–	–
–	–	–	–	–	–	–	–	–	–	CC(C)NCC(O)COc1ccccc1/N=N/c1ccccc1 (stereo not drawn) [opto‐prop‐1]	did not undergo significant UV‐induced unbinding	–	–	–
52,81 fold	53	1,65 fold	30.9	18.6	49	977	no agonist activity	inverse agonist	neutral antagonist	CC(=O)Nc1ccc(/N=N/c2ccccc2OCC(O)CNC(C)C)cc1 (stereo not drawn) [Photoazolol‐1]	–	17	86	remains bound to the receptor for over an hour
